Results: patent US10052320B2, “Substituted quinoxalines as FGFR kinase inhibitors” (ASTEX THERAPEUTICS LIMITED, priority 2011, dated 2018)

Tests used:
FGFR1 (h) = FGFR1 (h) (Homo sapiens, UniProt P11362); test: FGFR1 (enzymatic assay), TR-FRET; type: biochemical; settings: read-out: FGFR 1 pIC50 (converted)
Description: (§1) In a final reaction volume of 30 μL, FGFR1 (h) (25 ng/ml) was incubated with 50 mM HEPES pH 7.5, 6 mM MnCl2, 1 mM DTT, 0.1 mM Na3VO4, 0.01% Triton-X-100, 500 nM Btn-Flt3 and 5 μM ATP in the presence of compound (1% DMSO final). […] Time-Resolved Fluorescence Resonance Energy Transfer (TR-FRET) signal (ex340 nm. Em 620 nm, em 655 nm) was measured afterwards and results are expressed in RFU (Relative Fluorescence Units).

FGFR4 (h) = FGFR4 (h) (Homo sapiens, UniProt P22455); test: FGFR4 (enzymatic assay), TR-FRET; type: biochemical; settings: read-out: FGFR 4 pIC50 (converted)
Chain of FGFR4 (h) (P22455 22-802): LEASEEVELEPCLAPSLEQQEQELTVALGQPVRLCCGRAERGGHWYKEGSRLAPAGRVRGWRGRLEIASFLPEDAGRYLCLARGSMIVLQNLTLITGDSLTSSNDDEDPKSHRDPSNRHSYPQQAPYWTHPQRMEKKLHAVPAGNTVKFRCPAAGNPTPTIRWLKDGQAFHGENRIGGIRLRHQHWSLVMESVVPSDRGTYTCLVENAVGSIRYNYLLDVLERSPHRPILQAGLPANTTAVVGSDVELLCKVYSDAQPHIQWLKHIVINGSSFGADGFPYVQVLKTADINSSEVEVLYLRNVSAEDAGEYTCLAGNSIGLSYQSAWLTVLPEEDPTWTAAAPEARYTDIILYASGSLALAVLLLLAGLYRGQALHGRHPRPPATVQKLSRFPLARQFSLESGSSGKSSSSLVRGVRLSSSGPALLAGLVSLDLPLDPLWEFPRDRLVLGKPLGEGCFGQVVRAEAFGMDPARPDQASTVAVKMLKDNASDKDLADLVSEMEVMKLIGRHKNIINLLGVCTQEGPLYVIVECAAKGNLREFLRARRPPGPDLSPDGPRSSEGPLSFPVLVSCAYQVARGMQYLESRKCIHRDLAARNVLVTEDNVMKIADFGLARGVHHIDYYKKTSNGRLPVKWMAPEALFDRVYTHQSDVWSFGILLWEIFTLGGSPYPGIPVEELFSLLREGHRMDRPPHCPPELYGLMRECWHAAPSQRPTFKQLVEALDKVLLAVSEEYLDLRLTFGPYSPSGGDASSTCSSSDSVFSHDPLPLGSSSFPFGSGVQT
Description: as §1, with “FGFR4” for “FGFR1”, “(60” for “(25”

KDR (h) (VEGFR2) = KDR (h) (VEGFR2) (Homo sapiens, UniProt P35968); test: KDR (VEGFR2) (enzymatic assay), TR-FRET; type: biochemical
Chain of KDR (h) (VEGFR2) (P35968 20-1356): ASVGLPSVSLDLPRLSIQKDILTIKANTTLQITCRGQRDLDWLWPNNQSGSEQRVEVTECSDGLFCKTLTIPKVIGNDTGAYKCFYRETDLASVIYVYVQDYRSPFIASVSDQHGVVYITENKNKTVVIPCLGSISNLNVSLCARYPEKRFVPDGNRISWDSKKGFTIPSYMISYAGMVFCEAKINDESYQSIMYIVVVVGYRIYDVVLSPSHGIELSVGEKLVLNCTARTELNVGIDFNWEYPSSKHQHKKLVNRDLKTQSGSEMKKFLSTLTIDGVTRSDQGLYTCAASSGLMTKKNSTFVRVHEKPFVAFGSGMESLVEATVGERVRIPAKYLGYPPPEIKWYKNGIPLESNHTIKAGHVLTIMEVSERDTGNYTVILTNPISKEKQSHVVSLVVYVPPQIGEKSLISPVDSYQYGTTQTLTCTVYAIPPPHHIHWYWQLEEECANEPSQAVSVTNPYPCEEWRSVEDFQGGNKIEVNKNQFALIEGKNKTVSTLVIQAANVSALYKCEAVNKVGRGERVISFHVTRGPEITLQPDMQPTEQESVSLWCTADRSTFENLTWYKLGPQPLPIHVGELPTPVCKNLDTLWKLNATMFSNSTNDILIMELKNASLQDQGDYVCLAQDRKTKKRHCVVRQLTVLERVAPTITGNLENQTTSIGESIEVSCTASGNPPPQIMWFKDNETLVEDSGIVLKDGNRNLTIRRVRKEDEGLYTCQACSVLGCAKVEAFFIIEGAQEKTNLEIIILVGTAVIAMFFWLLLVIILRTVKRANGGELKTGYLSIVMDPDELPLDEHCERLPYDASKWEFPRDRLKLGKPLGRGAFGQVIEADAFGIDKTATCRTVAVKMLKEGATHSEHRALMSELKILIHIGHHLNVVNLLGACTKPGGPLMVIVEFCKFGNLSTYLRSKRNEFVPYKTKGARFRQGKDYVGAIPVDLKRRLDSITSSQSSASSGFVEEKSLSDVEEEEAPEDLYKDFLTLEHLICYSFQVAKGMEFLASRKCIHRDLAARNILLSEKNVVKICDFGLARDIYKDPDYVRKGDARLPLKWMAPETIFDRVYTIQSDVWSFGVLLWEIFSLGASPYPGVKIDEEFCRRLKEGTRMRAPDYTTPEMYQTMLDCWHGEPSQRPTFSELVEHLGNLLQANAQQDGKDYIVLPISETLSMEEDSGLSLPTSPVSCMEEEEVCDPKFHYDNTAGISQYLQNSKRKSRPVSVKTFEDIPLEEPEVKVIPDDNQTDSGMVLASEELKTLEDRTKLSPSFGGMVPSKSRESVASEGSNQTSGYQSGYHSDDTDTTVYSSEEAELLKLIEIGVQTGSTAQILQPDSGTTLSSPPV
Procedure, shortened: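 First, kinase (150 ng/ml), Btn-Flt3 (500 nM), ATP (3 μM) and compound (1% DMSO) react 120 min at RT in pH 7.5 HEPES/6 mM MnCl2. Next, EDTA with Eu-anti-P-Tyr and SA-XL-665 stops it for 60 min. Finally, TR-FRET is read as RFU.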

[1] = biological target: Ba/F3-FGFR1-transfected cells (Homo sapiens, UniProt P11362); test: Ba/F3-FGFR1 (minus IL3) cellular proliferation assay, Alamar Blue; type: cell-based; settings: minus IL3, 384 well
Chain of Ba/F3-FGFR1-transfected cells (P11362 whole entry, change not shown): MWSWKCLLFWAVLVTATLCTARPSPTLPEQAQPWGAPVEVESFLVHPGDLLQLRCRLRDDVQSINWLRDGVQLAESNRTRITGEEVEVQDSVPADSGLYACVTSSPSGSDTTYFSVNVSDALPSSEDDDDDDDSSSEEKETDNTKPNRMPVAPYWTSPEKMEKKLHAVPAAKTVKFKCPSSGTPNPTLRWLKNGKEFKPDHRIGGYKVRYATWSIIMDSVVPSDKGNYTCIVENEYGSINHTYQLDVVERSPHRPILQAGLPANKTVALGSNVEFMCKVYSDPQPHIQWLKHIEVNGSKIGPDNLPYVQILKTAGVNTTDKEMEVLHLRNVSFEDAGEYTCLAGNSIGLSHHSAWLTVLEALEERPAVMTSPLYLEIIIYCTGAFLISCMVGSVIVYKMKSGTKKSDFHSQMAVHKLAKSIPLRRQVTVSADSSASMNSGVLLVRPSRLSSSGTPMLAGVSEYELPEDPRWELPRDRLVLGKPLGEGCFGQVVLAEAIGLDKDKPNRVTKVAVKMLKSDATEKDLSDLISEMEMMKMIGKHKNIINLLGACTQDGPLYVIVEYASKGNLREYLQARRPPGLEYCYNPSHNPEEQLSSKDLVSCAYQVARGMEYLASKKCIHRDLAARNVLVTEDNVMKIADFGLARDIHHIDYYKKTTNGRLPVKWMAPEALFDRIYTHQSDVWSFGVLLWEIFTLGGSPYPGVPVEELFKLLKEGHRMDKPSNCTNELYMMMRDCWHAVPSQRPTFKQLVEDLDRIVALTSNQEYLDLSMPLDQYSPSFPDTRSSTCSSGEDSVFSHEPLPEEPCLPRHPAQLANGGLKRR
Procedure, shortened: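 First, compound was dispensed and cells added at 20000/well, or 10000/well in the larger-well version. Next came a 24 h incubation at 37 °C. Finally, resazurin reagent was applied for 4 h before fluorescence measurement at 540/590 nm.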

[2] = tested on: Ba/F3-Flt3-transfected cells in the presence of 10 ng/ml murine IL3; test: Ba/F3-Flt3 (plus IL3) cellular proliferation counterscreen, Alamar Blue; type: cell-based; settings: Mus musculus; plus 10 ng/ml murine IL3; read-out: BAF3-FLT3 (PLUS IL3) 384 well pIC50 (converted)

Chain of FGFR1 (h) (P11362 22-822): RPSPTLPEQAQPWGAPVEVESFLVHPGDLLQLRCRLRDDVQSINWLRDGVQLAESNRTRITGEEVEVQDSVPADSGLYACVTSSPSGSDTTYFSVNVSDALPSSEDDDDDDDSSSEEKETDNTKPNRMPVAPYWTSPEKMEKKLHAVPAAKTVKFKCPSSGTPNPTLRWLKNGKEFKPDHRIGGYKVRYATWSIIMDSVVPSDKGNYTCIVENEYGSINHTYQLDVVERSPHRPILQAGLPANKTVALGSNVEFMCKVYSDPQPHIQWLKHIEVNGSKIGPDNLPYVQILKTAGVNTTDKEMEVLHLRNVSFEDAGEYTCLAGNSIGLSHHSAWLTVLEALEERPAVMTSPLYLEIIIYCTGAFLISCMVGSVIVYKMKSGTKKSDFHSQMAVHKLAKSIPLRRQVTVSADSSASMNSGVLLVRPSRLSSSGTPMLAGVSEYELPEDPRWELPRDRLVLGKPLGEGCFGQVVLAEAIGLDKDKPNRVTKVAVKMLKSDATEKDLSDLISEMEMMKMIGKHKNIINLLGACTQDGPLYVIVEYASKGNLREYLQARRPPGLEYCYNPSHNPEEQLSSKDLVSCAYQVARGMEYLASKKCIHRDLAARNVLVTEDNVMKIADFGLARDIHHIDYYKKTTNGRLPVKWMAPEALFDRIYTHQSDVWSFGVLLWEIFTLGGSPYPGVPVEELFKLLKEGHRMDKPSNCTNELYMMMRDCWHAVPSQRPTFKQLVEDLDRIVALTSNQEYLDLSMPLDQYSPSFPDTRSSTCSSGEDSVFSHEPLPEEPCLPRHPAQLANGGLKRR

| Structure (SMILES) | IC50 (FGFR1 (h)) | IC50 (FGFR4 (h)) | IC50 (KDR (h) (VEGFR2)) | BAF3-FGFR 1 (MIN IL3) 384 well pIC50 [1] | IC50 [2] |
| --- | --- | --- | --- | --- | --- |
| COc1cc(OC)cc(N(CCO)c2ccc3ncc(-c4ccccc4)nc3c2)c1 [Compound 120] | 8.91 nM | 20 nM | 263 nM | 5.71 | > 10000 nM |
| COc1cc(OC)cc(N(CCO)c2ccc3ncc(-c4ccnc(C(=O)NCCCN)c4)nc3c2)c1 [Compound 123] | 18.6 nM | 245 nM | 575 nM | 5.22 | > 10000 nM |
| COc1cc(OC)cc(N(CCCO)c2ccc3ncc(-c4ccc(N5CCOCC5)nc4)nc3c2)c1 [Compound 124] | 6.92 nM | 33.1 nM | 102 nM | 6.24 | > 10000 nM |
| COc1cc(OC)cc(N(CCCNCC(F)(F)F)c2ccc3ncc(-c4ccc(N(C)C(=O)OC(C)(C)C)nc4)nc3c2)c1 [Compound 127] | 257 nM | 912 nM | > 1000 nM | <5 | > 10000 nM |
| COc1cc(OC)cc(N(CCCO)c2ccc3ncc(-c4ccnc(NC(=O)OC(C)(C)C)c4)nc3c2)c1 [Compound 128] | 182 nM | > 1000 nM | > 1000 nM | <5 | > 10000 nM |

Continued, in another order:

| IC50 (FGFR1 (h)) | IC50 (FGFR4 (h)) | IC50 (KDR (h) (VEGFR2)) | BAF3-FGFR 1 (MIN IL3) 384 well pIC50 [1] | Structure (SMILES) | IC50 [2] |
| --- | --- | --- | --- | --- | --- |
| 20.4 nM | 87.1 nM | 912 nM | 6.67 | COc1cc(OC)cc(N(CCCO)c2ccc3ncc(-c4ccc(F)nc4)nc3c2)c1 [Compound 117] | > 10000 nM |
| 83.2 nM | 316 nM | > 1000 nM | 5.29 | CNC(=O)c1cc(-c2cnc3ccc(N(CCCNCC(F)(F)F)c4cc(OC)cc(OC)c4)cc3n2)ccn1 [Compound 122] | > 10000 nM |
